# In patent US12414968B2, “Compositions comprising bacterially derived minicells and methods of using the same” (EnGeneIC Molecular Delivery Pty Ltd, priority 2018, dated 2025):
# Experiments:
# MiaPaca-2 cells = assay: MTS cell proliferation assay, MiaPaca-2; type: cell-based, human; settings: 72 hrs
# [1] = system: human peripheral blood monocytes (PBMCs); settings: multiple donors with different STING genotypes; cited from earlier work
# human STING alleles = settings: Corrales et al., 2015, Fu et al.; cited from earlier work
# [2] = system: human breast cancer cell line MDA-MB-468; assay: MTS cell proliferation assay, MDA-MB-468; type: cell-based; settings: 72 hrs
# [3] = system: Glioblastoma cell line U87-MG; assay: MTS cell proliferation assay, U87-MG; type: cell-based; settings: 72 hrs
# [4] = system: human colorectal cancer cell lines Caco-2 and HCT116; assay: MTS cell proliferation assay, Caco-2 and HCT116; type: cell-based; settings: 72 hrs
# [5] = system: bone marrow derived dendritic cells (BMDC) with CT26Ep12.1 cells; assay: BMDC / treated CT26Ep12.1 co-culture; type: cell-based, mouse; settings: 48 h co-incubation
# Method: The effect of tumor cell death in response to Ep-EDV, Ep-EDV-682, and 682 treatment on dendritic cell maturation was also examined (FIGS. 27E-27I). Bone marrow derived dendritic cells (BMDC) were co-incubated with treated tumor cells (4T1 and CT26Ep12.1) for 48 h, followed by assessment of the production of the type 1 interferons IFNα and IFNβ. Increases in type 1 interferon production by dendritic cells is well established as a mechanism of dendritic cell maturation and enhanced antigen presentation as well as being vital for their interaction with other immune cell subsets including NK cells and T-cells (Fitzgerald-Bocarsly and Feng, 2007; Simmons et al., 2012).
# Bone Marrow Derived DCs (BMDC): Bone marrow was isolated from the femurs and tibias of Balb/c mice. […]
# Macrophage and DC/Tumor Cell Co-cultures: CT26Ep12.1 and 4T1 cells were harvested with Versene (Gibco) and cells were collected in 1 mL Eppendorf tubes. […] RAW264.7/tumor cell co-cultures were collected using a cell scraper and samples were stained with DAPI (Sigma), anti-CD45 Brilliant Violet 510 (BioLegend), anti-CD86 APC-Cy7, and anti-CD206 AF488 and assessed by flow cytometry. […] RNA concentration was determined on an Eppendorf biophotometer plus. […] Data was exported to excel and the relative quantitation was calculated from the ΔΔCt.
# [6] = system: Adreno-cortical cancer cell lines ACC01 and ACC07; assay: MTS cell proliferation assay, ACC01 and ACC07; settings: 72 hrs, lines derived from Stage IV patients
# Method: All cells were incubated for a further 72 hrs followed by the colorimetric MTS cell proliferation assay (Cory et al., Cancer Commun., 3(7): 207-12 (1991)) using the CellTiter 96 AQueous One Solution Cell Proliferation Assay (Promega Corp., Madison, Wis., USA), according to the manufacturer's instructions. The colorimetric measurements were read at 490 nm.
# MiaPaca-2 GemR cells = assay: MTS cell proliferation assay, MiaPaca-2 GemR; type: cell-based, human; settings: 72 hrs
# MDA-MB 468 xenografts = assay: MDA-MB 468 breast cancer xenograft, EDVsDox with IFN-γ (FIGS. 21, 22); type: in vivo, Balb/c nu/nu mice; settings: IFN-γ 0.5 × 10^4 IU per dose
# Source text: Breast cancer: To study the anti-tumor effects of combining ^EGFREDVsDox and IFN-γ in a breast cancer model, MDA-MB 468 xenografts in Balb/c nu/nu mice were established and divided into four groups receiving different treatment combinations by intravenous tail vein injection. Group 1 received sterile physiological saline (FIG. 21, open diamonds). Group 2 received IFN-γ (0.5×10^4 IU) per dose (FIG. 21, solid triangles). Group 3 received ^EGFREDVsDox (FIG. 21, solid squares). Group 4 received ^EGFREDVsDox and IFN-γ (0.5×10^4 IU) per dose (FIG. 21, solid circles).
# [7] = system: A549 (lung cancer) xenografts; assay: A549 xenograft, EDVsDox with IFN-γ (FIG. 20); type: in vivo, Balb/c nu/nu mice; settings: i.v. tail vein; IFN-γ 0.5 × 10^4 IU per dose
# Source text: Lung cancer: To study the anti-tumor effects of combining ^EGFREDVsDox and IFN-γ (type II IFN) in a lung cancer model, A549 (lung cancer) xenografts in Balb/c nu/nu mice were established and divided into four groups receiving different treatment combinations by intravenous tail vein injection. Group 1 received sterile physiological saline (FIG. 20, open diamonds). Group 2 received IFN-γ (0.5×10^4 IU) per dose (FIG. 20, solid triangles). Group 3 received ^EGFREDVsDox (FIG. 20, solid squares). Group 4 received ^EGFREDVsDox and IFN-γ (0.5×10^4 IU) per dose (FIG. 20, solid circles).
molecule,measurement,setting,value
"O=c1[nH]cc(F)c(=O)[nH]1 [5-Fluoro Uracil (5-FU), 5-Fluoro Uracil]",inhibition of proliferation / resistance of the cells,MiaPaca-2 cells,resistant
Nc1ncnc2c1ncn2[C@@H]1O[C@@H]2COP(O)(=S)O[C@@H]3C(O)[C@@H](COP(O)(=S)O[C@H]2[C@H]1O)O[C@H]3n1cnc2c(N)ncnc21 (stereo partly drawn) [ML RR-S2 CDA],expression of IFN-β,[1],dose-dependent expression of IFN-β
same,activation of human STING alleles,human STING alleles,broadly activate all known human STING alleles
CC(=O)O[C@@]12CO[C@@H]1C[C@H](O)[C@@]1(C)C(=O)[C@H](O)C3=C(C)[C@@H](OC(=O)[C@H](O)[C@@H](NC(=O)OC(C)(C)C)c4ccccc4)C[C@@](O)([C@@H](OC(=O)c4ccccc4)[C@H]21)C3(C)C [docetaxel],inhibition of proliferation / resistance of the cell line,[2],resistant
COc1cccc2c1C(=O)c1c(O)c3c(c(O)c1C2=O)C[C@@](O)(C(=O)CO)C[C@@H]3O[C@H]1C[C@H](N)[C@H](O)[C@H](C)O1 [doxorubicin],inhibition of proliferation / resistance of the cell line,[3],resistant
same,inhibition of proliferation / resistance of the cell line,[2],resistant
same,inhibition of proliferation / resistance of the cells,MiaPaca-2 cells,resistant
same,inhibition of proliferation / resistance of the cell lines,[4],resistant
same,increase in IFNβ mRNA production,[5],~5 fold
same,cytotoxic effect / resistance of the cell lines,[6],highly resistant
COC(=O)c1cc2c([nH]1)C(=O)C=C1N(C(=O)c3cc4cc(OC)c(OC)c(OC)c4[nH]3)C[C@H]3C[C@]123 [duocarmycin],cytotoxic effect / resistance of the cell lines,[6],potent cytotoxic effects
Nc1ccn([C@@H]2O[C@H](CO)[C@@H](O)C2(F)F)c(=O)n1 [gemzar],inhibition of proliferation / resistance of the cells,MiaPaca-2 GemR cells,resistant
same,inhibition of proliferation / resistance of the cells,MiaPaca-2 cells,resistant
CCc1c2c(nc3ccc(OC(=O)N4CCC(N5CCCCC5)CC4)cc13)-c1cc3c(c(=O)n1C2)COC(=O)[C@]3(O)CC [irinotecan],inhibition of proliferation / resistance of the cells,MiaPaca-2 cells,resistant
CN(Cc1cnc2nc(N)nc(N)c2n1)c1ccc(C(=O)N[C@@H](CCC(=O)O)C(=O)O)cc1 [mathotrxate],inhibition of proliferation / resistance of the cells,MiaPaca-2 cells,resistant
Clc1ccc(C(c2ccccc2Cl)C(Cl)Cl)cc1 (stereo not drawn) [mitotane],cytotoxic effect / resistance of the cell lines,[6],highly resistant
O=C1c2c(O)ccc(O)c2C(=O)c2c(NCCNCCO)ccc(NCCNCCO)c21 [mitoxantrone],cytotoxic effect / resistance of the cell lines,[6],highly resistant
O=C1[O][Pt]2([NH][C@@H]3CCCC[C@H]3[NH]2)[O]C1=O [oxaliplatin],inhibition of proliferation / resistance of the cells,MiaPaca-2 cells,resistant
"CC(=O)O[C@H]1C(=O)[C@@]2(C)[C@H]([C@H](OC(=O)c3ccccc3)[C@]3(O)C[C@H](OC(=O)[C@H](O)[C@@H](NC(=O)c4ccccc4)c4ccccc4)C(C)=C1C3(C)C)[C@]1(OC(C)=O)CO[C@@H]1C[C@@H]2O [paclitaxel IVAX, paclitaxel]",inhibition of proliferation / resistance of the cell line,[3],resistant
CC(=O)O[C@H]1C(=O)[C@@]2(C)[C@H]([C@H](OC(=O)c3ccccc3)[C@]3(O)C[C@H](OC(=O)[C@H](O)[C@@H](NC(=O)c4ccccc4)c4ccccc4)C(C)=C1C3(C)C)[C@]1(OC(C)=O)CO[C@@H]1C[C@@H]2O [paclitaxel],inhibition of proliferation / resistance of the cell line,[2],resistant
same,cytotoxic effect / resistance of the cell lines,[6],highly resistant
"IFN-γ: type II interferon, given free at 0.5 or 0.75 × 10^4 IU per dose (protein, UniProt P01580 23-155, looked up) Interferon gamma: HGTVIESLESLNNYFNSSGIDVEEKSLFLDIWRNWQKDGDMKILQSQIISFYLRLFEVLKDNQAISNNISVIESHLITTFFSNSKAKKDAFMSIAKFEVNNPQVQRQAFNELIRVVHQLLPESSLRKRKRSRC","Results: anti-tumor efficacy, Exp. #2 (FIG. 22)",MDA-MB 468 xenografts; listed as IFN-,no anti-tumor efficacy
same,"Results: anti-tumor efficacy, Exp. #1 (FIG. 21)",MDA-MB 468 xenografts; i.v. tail vein,no anti-tumor efficacy
same,Results: anti-tumor efficacy,[7],no anti-tumor efficacy
